Results on ten compounds are retold here after ChEMBL document CHEMBL3046241, “Synthesis and evaluation of 2-amino-5-sulfanyl-1,3,4-thiadiazoles as antidepressant, anxiolytic, and anticonvulsant agents” (Med Chem Res, 2009).

Calls of active or inactive are those of the source. The calls are words filed in the database; no cut-off is given here.

Series [1] concerns Mus musculus. Kind of series: Anticonvulsant activity against pentylenetetrazole-induced seizures in Mus musculus Swiss albino (mouse) assessed as onset of seizures at 4 mg/kg, po administered 1 hr prior challenge. Format: functional, organism-based. Set-up: dose 4 mg/kg.
In series [2] the test system is Mus musculus. In words: Anxiolytic activity in Mus musculus Swiss albino (mouse) assessed as time spent in light chamber at 2 mg/kg by light-dark box test. The format is functional.
The species entered for series [3] is Mus musculus. Kind of series: Anxiolytic activity in Mus musculus Swiss albino (mouse) assessed as time spent in open arm by elevated plus maze test. Format: functional.
For series [4], the system named is Mus musculus. In words: Toxicity in Mus musculus Swiss albino (mouse) assessed as mortality at 4 mg/kg, po. Format: organism-based. To be noted: in vivo. Set-up: dose 4 mg/kg, route oral.
Series [5] concerns Mus musculus. Kind of series: Toxicity in Mus musculus Swiss albino (mouse) assessed as mortality at 25 mg/kg, po. Set-up: dose 25 mg/kg, route oral. The note with it: in vivo. Format: organism-based.
Series [6] relates to Mus musculus. In words: Anticonvulsant activity against pentylenetetrazole-induced seizures in Mus musculus Swiss albino (mouse) assessed as onset of seizures at 25 mg/kg, po administered 1 hr prior challenge. The format is functional.
For series [7], the system named is Mus musculus. In words: Anticonvulsant activity against maximal electroshock-induced seizures in Mus musculus Swiss albino (mouse) assessed as time duration of tonic limb extensor at 25 mg/kg. Format: functional. In general terms: In the maximal electroshock model the usual endpoint is tonic extension of the hind limbs.
Series [8] has as its system Mus musculus. In words: Antidepressant activity in Mus musculus Swiss albino (mouse) assessed as duration of immobility at 25 mg/kg, ip measured after 1 hr by forced swim test test relative to pretreatment. Format: functional. The note with it: route intraperitoneal.
Series [9] concerns Mus musculus. In words: Anticonvulsant activity against maximal electroshock-induced seizures in Mus musculus Swiss albino (mouse) assessed as animals protected at 25 mg/kg. The format is functional.
The test system of series [10] is Mus musculus. Kind of series: Anxiolytic activity in Mus musculus Swiss albino (mouse) assessed as time spent in light chamber at 25 mg/kg by light-dark box test. The format is functional.
Series [11] has as its system Mus musculus. Kind of series: Antidepressant activity in Mus musculus Swiss albino (mouse) assessed as as increase in mobile phase at 25 mg/kg, ip measured after 1 hr by tail suspension test. Format: functional. The note with it: route intraperitoneal.
The test system of series [12] is Mus musculus. Kind of series: Antidepressant activity in ip dosed Mus musculus Swiss albino (mouse) assessed as duration of immobility measured after 1 hr by forced swim test relative to pretreatment. The format is functional.
Series [13] deals with Mus musculus. Kind of series: Anticonvulsant activity against maximal electroshock-induced seizures in Mus musculus Swiss albino (mouse) assessed as time duration of tonic limb extensor at 40 mg/kg. Format: functional.
The subject of series [14] is Mus musculus. In words: Anticonvulsant activity against maximal electroshock-induced seizures in Mus musculus Swiss albino (mouse) assessed as animals protected at 40 mg/kg. Format: functional.

As to `CN1C(=O)CN=C(c2ccccc2)c2cc(Cl)ccc21` [DIAZEPAM], the result with Mus musculus [1] was Active. The Time in the series with Mus musculus [2] is recorded as 193 s; in the series filed under Mus musculus [3], 58.76 s. For the same compound, the Activity entry in the series with Mus musculus [4] is “Non-toxic”.

Regarding `O=C(Nc1nnc(Sc2ccc(C(F)(F)F)cc2)s1)c1ccccc1`, the Activity entry with Mus musculus [5] is “Toxic”; in the series on Mus musculus [8], -29.78%; in the series on Mus musculus [9] it was 0%; with Mus musculus [11] it was 46.93%. Further, the Time in the series with Mus musculus [6] came to 81.74 s; in the series on Mus musculus [7], 6.18 s; in the series with Mus musculus [10], 163 s; in the series filed under Mus musculus [3], 29.86 s.

Regarding `CN(C)CCCN1c2ccccc2CCc2ccccc21.Cl` [IMIPRAMINE HYDROCHLORIDE], the Activity in the series with Mus musculus [12] is -47.48%.

Consider `O=C(Nc1nnc(Sc2ccc(C(Cl)(Cl)Cl)cc2)s1)c1ccccc1`, for which the Activity entry with Mus musculus [5] was “Non-toxic”; in the series with Mus musculus [8], -22.15%; with Mus musculus [9], 0%; in the series on Mus musculus [11], 30.7%. Further, the Time in the series with Mus musculus [6] turned out to be 71.21 s; in the series on Mus musculus [7], 7.08 s; in the series on Mus musculus [10], 152.33 s; in the series filed under Mus musculus [3], 20.38 s.

For `O=C(Nc1nnc(Sc2ccc(Br)cc2)s1)c1ccccc1`, the Activity result is given as “Toxic” in the series on Mus musculus [5], 1.1% in the series with Mus musculus [8], 0% with Mus musculus [9] and 12% in the series with Mus musculus [11]. Further, the Time turned out to be 78.27 s with Mus musculus [6], 7.96 s in the series on Mus musculus [7], 153.16 s in the series with Mus musculus [10] and 20.88 s in the series listed under Mus musculus [3].

On to `O=C(Nc1nnc(Sc2ccc(S(=O)(=O)Cl)cc2)s1)c1ccccc1`, for which the Activity result with Mus musculus [5] is on record as “Non-toxic”; in the series on Mus musculus [8], -33.58%; with Mus musculus [9], 0%; in the series with Mus musculus [11] it was 49.29%. In addition, the Time is on record as 102.26 s with Mus musculus [6], 6.25 s with Mus musculus [7], 166.66 s in the series on Mus musculus [10] and 34.11 s in the series listed under Mus musculus [3].

With `Cc1ccc(Sc2nnc(NC(=O)c3ccccc3)s2)cc1`, the Activity entry with Mus musculus [5] was “Non-toxic”; with Mus musculus [8], 1.35%; with Mus musculus [9], 0%; in the series with Mus musculus [11], 17.26%. Moreover, the Time in the series on Mus musculus [6] came out at 78.35 s; in the series on Mus musculus [7] it was 7.35 s; in the series with Mus musculus [10] it was 143 s; in the series filed under Mus musculus [3], 31.13 s.

As for `O=C1NC(=O)C(c2ccccc2)(c2ccccc2)N1` [PHENYTOIN], in the series on Mus musculus [13], the Time turned out to be 0 s. Also, the Activity with Mus musculus [14] is on record as 100%.

With `O=C(Nc1nnc(Sc2ccc(F)cc2)s1)c1ccccc1`, the Activity entry in the series on Mus musculus [5] is “Non-toxic”; with Mus musculus [8], -20.3%; in the series with Mus musculus [9] it was 0%; in the series with Mus musculus [11] it was 28.45%. For the same compound, the Time came to 91.416 s in the series on Mus musculus [6], 6.37 s in the series on Mus musculus [7], 153.66 s in the series on Mus musculus [10] and 32.694 s in the series filed under Mus musculus [3].

As for `NS(=O)(=O)c1ccc(Sc2nnc(NC(=O)c3ccccc3)s2)cc1`, the Activity entry with Mus musculus [5] is given as “Toxic”; with Mus musculus [8] it was -33.22%; with Mus musculus [9], 0%; with Mus musculus [11] it was 49.86%. The Time with Mus musculus [6] came to 86.98 s; in the series with Mus musculus [7] it was 6.7 s; in the series with Mus musculus [10] it was 163.66 s; in the series filed under Mus musculus [3], 38.5 s.
